Tests used:
[1] = system: NPPFV cells; experiment: Ca2+ imaging (Fura-2) of NPPFV cells after stimulation with neurotransmitters; type: cell-based, human; details: for percentage of responding NPPFV cells: neurotransmitter 0.1 mM, mean±SEM; for elicited [Ca2+]i of responding NPPFV cells: undifferentiated and differentiated NPPFV cells, result in words
Method: Cells were incubated at 37° C. for 30 min in X-vivo medium (containing 3% FBS, 5 μM Fura-2 tetra-acetoxymethyl ester, 8 μM pluronic acid F127 and 250 μM sulfinpyrazone). Cells were washed in modified Mg^2+-free Hank's balanced salt solution (HBSS, 2.6 mM CaCl2, 15 mM HEPES [pH 7.4] and 250 μM sulfinpyrazone). Five types of neurotransmitters, γ-aminobutyric acid (GABA), glutamate (Glu), glycine (Gly), dopamine (Dopa) and acetylcholine (Ach) were dissolved in modified HBSS at a concentration of 0.1 mM. The largest dynamic range for Ca^2+-dependent fluorescence signals is obtained by excitation at 340 nm and 380 nm, and detecting their ratio of emission fluorescence intensities at around 510 nm. From this ratio, the concentration of intracellular Ca^2+ ([Ca^2+]i) can be estimated, using dissociation constants that are derived from calibration curves. By using the ratio of fluorescence intensities produced by excitation at two wave lengths, factors such as uneven dye distribution and photo bleaching are minimized ([…] Ratio Imaging System, Cincinnati, Ohio). The change of [Ca^2+]i was calculated from the difference between the peak Ca^2+ concentration evoked by each agonist and the control value of HBSS (before the addition of agonist). At least 80 cells were selected for analyzing the change of [Ca^2+]i evoked by each agonist, averaged over three repetitions.

[2] = system: B6 mouse RGCs; experiment: RGC survival assay (LIVE/DEAD) in co-culture with transfected hNPPFV cells; type: cell-based; details: added to hNPPFV^igf-1-tdTomato co-culture; H-1356 40 μg/ml, NBI-31772 10 μM, IGF-1R antibody 1:250; words
Method: (§1) P0 B6 mice were euthanized with CO2 and the retinas were dissected out from the eyecups in cold Hank's buffer (Life Technologies) containing 1× Penicillin-Streptomycin-Glutamine (Life Technologies). Retinas were digested in 20 U/ml papain solution containing 100 U/ml DNaseI at 37° C. for 5-15 min; the reaction was stopped with 5 mg/ml ovomucoid protease inhibitor containing 5 mg/ml albumin. Retinas were gently triturated to obtain a single cell suspension, and cells were washed once and re-suspended in 800 μl washing buffer (0.5% BSA, 2 mM EDTA in 1×PBS). RGCs were isolated using Thy1.2 (CD90.2) microbeads and MACS® magnetic separation system (Miltenyi Biotech) following the manufacturer's instructions. […]
(§2) Co-culture inserts and culture media were removed after 3 days; RGCs were washed with 1×PBS and stained with CalceinAM and EthD-1 (LIVE/DEAD® Viability/Cytotoxicity kit, Life Technologies) for 40 min at room temperature. Images of 4-6 view fields were randomly selected throughout each well under an Olympus inverted fluorescence microscope. Live and dead cells were counted using ImageJ 1.46 (National Institutes of Health, Bethesda, Md.) and survival rates were calculated as live cells/live+dead cells×100%. […] Images were acquired with an Olympus inverted fluorescence microscope. Neurite lengths were measured using ImageJ.

[3] = system: B6 mouse RGCs; experiment: Neurite outgrowth assay of RGCs in co-culture with transfected hNPPFV cells; type: cell-based; details: added to hNPPFV^igf-1-tdTomato co-culture; H-1356 40 μg/ml, NBI-31772 10 μM, IGF-1R antibody 1:250; words
Method: as §1, §2

[4] = system: retina of adult C57BL/6 mice; experiment: Inner retinal (intravitreal) transplantation into adult C57BL/6 mice; type: in vivo, mouse; details: intraperitoneal RA 2 mg/kg·day, 3 weeks; result in words
Description: For studying their potential for inner retinal transplantation, NPPFV cells or hRPCs were intravitreally injected to 20 and 10 C57BL/6 mice, respectively. Animals were maintained in standard animal facility. To trace the transplanted cells, NPPFV cells and hRPCs were infected with an AAV2 or retrovirus vector harboring EGFP (HGTI, Boston, Mass.) following the instructions of each transfection kit, respectively. Mice (4-6 weeks of age) were deeply anesthetized with an intraperitoneal injection of ketamine (120 mg/kg) and xylazine (20 mg/kg) and pupils were dilated with 0.5% topical tropicamide. Dissociated GFP-positive cells (1×10^5 cells/2 μl) were suspended in HBSS […] of the eye through a glass micropipette connected to a 10 μl Hamilton syringe via polyethylene tubing. Sham-injected mice received HBSS without cells. All experimental animals received injection in one eye and the other eye was used as an untreated control. […] Anti-GFP antibody (1:100, ABCAM, USA) was used to enhance the fluorescence of prelabled-GFP, while anti-β-III-tubulin (1:500, Sigma, USA), anti-GFAP (1:300, Sigma, USA) and anti-synaptophysin (1:100, DAKO, USA) antibodies helped to assess the differentiation of the transplanted cells. […] Every 10th serial section was counted, measuring […] in thickness as to avoid redundancy of cell counts.

[5] = molecular target: IGF-1 receptor on B6 mouse retinal ganglion cells (mouse) (UniProt Q60751); experiment: cell-based or functional assay
Chain of UniProt Q60751 (Q60751 31-1373): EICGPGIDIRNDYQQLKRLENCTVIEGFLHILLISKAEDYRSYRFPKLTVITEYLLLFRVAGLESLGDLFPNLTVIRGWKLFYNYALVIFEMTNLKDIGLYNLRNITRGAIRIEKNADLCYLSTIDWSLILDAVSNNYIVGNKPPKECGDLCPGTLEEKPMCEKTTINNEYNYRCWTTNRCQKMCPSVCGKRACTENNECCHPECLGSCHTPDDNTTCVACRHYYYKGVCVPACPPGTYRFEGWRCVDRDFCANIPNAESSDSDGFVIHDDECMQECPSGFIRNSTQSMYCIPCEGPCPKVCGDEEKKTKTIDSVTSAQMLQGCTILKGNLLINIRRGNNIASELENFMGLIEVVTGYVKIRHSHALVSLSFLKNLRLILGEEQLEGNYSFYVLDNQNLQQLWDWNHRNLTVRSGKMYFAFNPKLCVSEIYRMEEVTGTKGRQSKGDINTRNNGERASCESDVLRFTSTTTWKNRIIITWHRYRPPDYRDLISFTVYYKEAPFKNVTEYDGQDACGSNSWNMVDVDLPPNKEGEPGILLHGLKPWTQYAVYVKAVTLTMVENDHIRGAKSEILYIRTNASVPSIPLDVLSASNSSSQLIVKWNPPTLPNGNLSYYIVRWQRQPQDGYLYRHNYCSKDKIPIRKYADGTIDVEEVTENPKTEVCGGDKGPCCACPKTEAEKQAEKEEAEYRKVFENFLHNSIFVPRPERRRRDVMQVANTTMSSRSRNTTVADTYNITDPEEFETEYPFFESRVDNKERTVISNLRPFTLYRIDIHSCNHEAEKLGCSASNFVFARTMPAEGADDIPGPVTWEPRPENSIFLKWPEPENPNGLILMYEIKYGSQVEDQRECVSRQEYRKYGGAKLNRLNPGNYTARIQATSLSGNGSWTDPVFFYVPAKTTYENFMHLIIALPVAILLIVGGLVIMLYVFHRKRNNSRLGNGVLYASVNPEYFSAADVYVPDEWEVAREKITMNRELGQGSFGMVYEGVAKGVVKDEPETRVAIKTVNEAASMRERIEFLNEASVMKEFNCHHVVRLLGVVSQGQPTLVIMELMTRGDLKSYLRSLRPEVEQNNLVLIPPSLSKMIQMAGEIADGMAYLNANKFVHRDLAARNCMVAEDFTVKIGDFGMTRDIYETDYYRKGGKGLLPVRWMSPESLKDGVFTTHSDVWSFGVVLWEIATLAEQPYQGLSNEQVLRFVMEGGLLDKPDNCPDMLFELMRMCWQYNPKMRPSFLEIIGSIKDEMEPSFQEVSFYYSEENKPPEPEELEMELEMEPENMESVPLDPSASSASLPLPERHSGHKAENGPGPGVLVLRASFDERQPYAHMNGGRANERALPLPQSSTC

Molecule	percentage of responding NPPFV cells ([1]; differentiated NPPFV cells)	percentage of responding NPPFV cells ([1]; undifferentiated NPPFV cells)	elicited [Ca2+]i of responding NPPFV cells [1]	also measured
CC(=O)OCC[N+](C)(C)C [Ach, acetylcholine]	8.23±5.41%	10.96±8.12%		
NCCc1ccc(O)c(O)c1 [Dopa, dopamine]	7.89±9.18%	6.41±7.14%	quite low	
NCCCC(=O)O [GABA, γ-aminobutyric acid]	12.99±4.86%	14.94±11.73%	quite low	
N[C@@H](CCC(=O)O)C(=O)O [Glu, glutamate]	87.88±4.97%	48.98±11.67%	significant increase	
NCC(=O)O [Gly, glycine]	21.05±9.72%	16.67±10.62%	quite low	
O=C(O)c1cc2cc(O)c(O)cc2c(C(=O)c2ccc(O)c(O)c2)n1 [NBI-31772]				effect on IGF-1-tdTomato-mediated RGC survival [2]: completely eliminated the effects; effect on IGF-1-tdTomato-mediated neurite outgrowth [3]: completely eliminated the effects
CC1=C(/C=C/C(C)=C/C=C/C(C)=C/C(=O)O)C(C)(C)CCC1 [RA, all-trans-retinoic acid]				differentiation of engrafted NPPFV cells into retinal ganglion-like neurons [4]: significantly increases the differentiation of engrafts into retinal ganglion-like mature neurons
IGF-1-tdTomato fusion protein (from UniProt P05017 49-118) (ligand)				average neurite length of RGCs co-cultured with hNPPFV^igf-1-tdTomato cells [5]: 93 µm; neurites per RGC co-cultured with hNPPFV^igf-1-tdTomato cells (neurites/cell) [5]: 2; survival rate of RGCs co-cultured with hNPPFV^igf-1-tdTomato cells [5]: 22%

Reference: patent US20150125432A1, “Human Persistent Fetal Vasculature Neural Progenitors for Transplantation in the Inner Retina” (The Schepens Eye Research Institute, Inc., priority 2012, published 2015)
